Laboratory results published in the supplement of paper PMC10307832.

Experiments:
Experiment in all cases: relative viability (nuclei count vs DMSO), 5 days (fraction); higher = more cells survive
AZD5582 + Pemetrexed = compound: C[C@@H](C(=O)N[C@@H](C1CCCCC1)C(=O)N2CCC[C@H]2C(=O)N[C@@H]3[C@@H](CC4=CC=CC=C34)OCC#CC#CCO[C@@H]5CC6=CC=CC=C6[C@@H]5NC(=O)[C@@H]7CCCN7C(=O)[C@H](C8CCCCC8)NC(=O)[C@H](C)NC)NC [AZD5582] + Nc1nc2[nH]cc(CCc3ccc(C(=O)N[C@@H](CCC(=O)O)C(=O)O)cc3)c2c(=O)[nH]1 [Pemetrexed] (partner 0.2 µM)
Outline: (§1)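 Relative viability equals treated-well nuclei counts divided by vehicle-well nuclei counts. Counts came from 4× images of lung cancer cell lines grown in 1536-well plates for 5 days after pin-tool dosing on the day after seeding. Dosing used one drug alone or a fixed anchor-drug dose plus five library-drug doses (not always all listed) in √10 steps, and values are medians of duplicate plates.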

AZD5582 + Olaparib = compound: C[C@@H](C(=O)N[C@@H](C1CCCCC1)C(=O)N2CCC[C@H]2C(=O)N[C@@H]3[C@@H](CC4=CC=CC=C34)OCC#CC#CCO[C@@H]5CC6=CC=CC=C6[C@@H]5NC(=O)[C@@H]7CCCN7C(=O)[C@H](C8CCCCC8)NC(=O)[C@H](C)NC)NC [AZD5582] + O=C(c1cc(Cc2n[nH]c(=O)c3ccccc23)ccc1F)N1CCN(C(=O)C2CC2)CC1 [Olaparib] (partner 8 µM)
Outline: as §1

[1] = compound: Cn1nnc2c(C(N)=O)ncn2c1=O [Temozolomide] + CS(=O)(=O)N1CCN(Cc2cc3nc(-c4cccc5[nH]ncc45)nc(N4CCOCC4)c3s2)CC1 [Pictilisib] (partner 1 µM)
Outline: as §1

[2] = compound: Cn1nnc2c(C(N)=O)ncn2c1=O [Temozolomide] + O=C(CCCCCCC(=O)Nc1ccccc1)NO [Vorinostat] (partner 1 µM)
Outline: as §1

Row | Cell Line | relative viability (AZD5582 + Pemetrexed; first compound 0.001581 µM) | relative viability (AZD5582 + Pemetrexed; first compound 0.005 µM) | relative viability (AZD5582 + Pemetrexed; first compound 0.01581 µM) | relative viability (AZD5582 + Pemetrexed; first compound 0.05 µM) | relative viability (AZD5582 + Olaparib; first compound 0.001581 µM) | relative viability (AZD5582 + Olaparib; first compound 0.005 µM) | relative viability (AZD5582 + Olaparib; first compound 0.01581 µM) | relative viability (AZD5582 + Olaparib; first compound 0.05 µM) | relative viability ([1]; first compound 0.2 µM) | relative viability ([1]; first compound 0.6325 µM) | relative viability ([1]; first compound 2 µM) | relative viability ([1]; first compound 6.325 µM) | relative viability ([1]; first compound 20 µM) | relative viability ([2]; first compound 0.2 µM) | relative viability ([2]; first compound 0.6325 µM) | relative viability ([2]; first compound 2 µM) | relative viability ([2]; first compound 6.325 µM) | relative viability ([2]; first compound 20 µM)
1 | HCC-827 | 0.272 | 0.273 | 0.283 | 0.205 | 0.662 | 0.807 | 0.626 | 0.68 | 0.82 | 0.958 | 1.06 | 1.05 | 0.313 | 0.637 | 0.785 | 0.817 | 0.876 | 0.169
2 | HOP-62 | 0.262 | 0.312 | 0.345 | 0.371 | 0.234 | 0.287 | 0.252 | 0.232 | 0.918 | 0.961 | 0.816 | 0.385 | 0.545 | 0.873 | 0.58 | 0.675 | 0.456 | 0.795
3 | IA-LM |  |  |  |  | 0.708 | 0.586 | 0.649 | 0.582 | 0.279 | 0.376 | 0.385 | 0.266 | 0.328 | 0.842 | 1.05 | 0.895 | 0.952 | 1.03
4 | LC-2-ad | 0.283 | 0.272 | 0.28 | 0.278 | 0.68 | 0.715 | 0.659 | 0.805 | 0.554 | 0.546 | 0.511 | 0.593 | 0.481 | 0.824 | 0.717 | 0.726 | 0.733 | 0.668
5 | LCLC-97TM1 | 0.185 | 0.205 | 0.16 | 0.16 | 0.38 | 0.319 | 0.366 | 0.272 | 0.197 | 0.224 | 0.163 | 0.178 | 0.17 | 0.98 | 0.763 | 0.659 | 0.514 | 0.628
6 | LCLC-103H | 0.386 | 0.426 | 0.443 | 0.352 | 0.806 | 0.836 | 0.714 | 0.862 | 0.614 | 0.523 | 0.816 | 0.509 | 0.62 | 0.943 | 0.814 | 0.881 | 0.732 | 0.762
7 | LK-2 | 0.199 | 0.25 |  | 0.256 | 0.63 | 0.702 | 0.772 | 0.675 | 0.48 | 0.568 | 0.575 | 0.353 | 0.305 | 0.345 | 0.296 | 0.386 | 0.188 | 0.237
8 | LOU-NH91 | 0.341 | 0.367 | 0.367 | 0.408 | 0.875 | 0.945 | 0.928 | 0.903 | 0.512 | 0.547 | 0.551 | 0.523 | 0.497 | 0.799 | 0.934 | 1.03 | 0.923 | 0.797
9 | LU99A | 0.169 | 0.186 | 0.168 | 0.185 | 0.279 | 0.264 | 0.213 | 0.266 | 0.325 | 0.351 | 0.324 | 0.343 | 0.335 | 0.501 | 0.548 | 0.419 | 0.388 | 0.551
10 | LXF-289 | 0.798 | 0.815 | 0.872 | 0.797 | 0.98 | 0.995 | 0.953 | 1.02 | 0.814 | 0.788 | 0.823 | 0.737 | 0.655 | 0.782 | 0.826 | 0.65 | 0.712 | 0.712
11 | NCI-H23 | 0.578 | 0.514 | 0.55 | 0.455 | 0.272 | 0.203 | 0.3 | 0.236 | 0.563 | 0.508 | 0.517 | 0.401 | 0.454 | 0.79 | 0.727 | 0.716 | 0.595 | 0.541
12 | NCI-H322M | 0.705 | 0.732 | 0.659 | 0.785 | 0.745 | 0.865 | 0.692 | 0.882 |  | 0.555 | 0.545 | 0.483 | 0.363 | 0.93 | 0.931 | 1.05 | 0.899 | 0.761
13 | NCI-H522 | 0.989 | 1.13 | 0.976 | 0.823 | 0.554 | 0.628 | 0.641 | 0.674 |  |  |  |  |  | 0.762 | 1.02 | 1.02 | 0.973 | 0.92
14 | NCI-H727 |  |  |  |  | 0.698 | 0.73 | 0.65 | 0.781 | 0.324 | 0.316 | 0.364 | 0.286 | 0.371 |  | 1.15 | 1.31 | 1.16 | 1.06
15 | NCI-H1299 |  |  |  |  | 0.943 | 0.965 | 0.963 | 0.931 | 0.823 | 0.8 | 0.744 | 0.784 | 0.847 |  |  |  |  | 
16 | NCI-H1563 | 0.682 | 0.742 | 0.586 | 0.861 |  |  |  |  | 0.654 | 0.619 | 0.642 | 0.609 | 0.664 |  |  |  |  | 
17 | NCI-H1648 | 0.654 | 0.738 |  | 0.708 | 0.65 | 0.735 |  | 0.672 |  |  |  |  |  |  | 0.436 | 0.624 | 0.457 | 0.375
18 | NCI-H1792 | 0.71 | 0.881 | 0.557 | 1.05 | 0.343 | 0.466 | 0.337 | 0.409 | 0.199 | 0.304 | 0.241 | 0.314 | 0.256 |  |  |  |  | 
19 | NCI-H2342 | 0.79 | 0.747 | 0.756 | 0.791 | 0.325 | 0.361 | 0.463 | 0.438 |  |  |  |  |  | 0.673 | 0.833 | 0.9 | 0.742 | 0.811
20 | SW 900 | 0.366 | 0.466 | 0.486 | 0.435 | 0.667 | 0.656 | 0.79 | 0.495 |  |  |  |  |  | 0.741 | 0.498 | 0.569 | 0.373 | 0.344
